Experimental data from patent publication US20250332112A1, “IONIZABLE CATIONIC LIPIDS FOR LIPID NANOPARTICLES” (GENEVANT SCIENCES GMBH, priority 2022, published 2025).

How the values were obtained:
[1] = tested on: luciferase activity in the liver; assay: Luciferase activity in liver after intravenous luciferase mRNA LNP; assay type: in vivo; conditions: 0.5 mg/kg IV, 6 h post-IV administration, BALB/c mice (n = 4)
Description: Frozen aliquots of liver were thawed and homogenized in 1 mL of 1×CCLR (Cell Culture Lysis Reagent) using a FastPrep® homogenizer. The homogenate was then centrifuged at 16,000 RPM for 10 minutes at 4° C. Twenty (20) μL of the supernatant was loaded into a 96-well white plate and luminescence measured following addition of luciferase reagent (Promega Luciferase Assay System). Luciferase activity was determined by comparing luminescence of the homogenized samples to luciferase protein standards. To account for any quenching of luminescence by components in the liver homogenate, luciferase was added to the liver homogenates of untreated animals and the resulting luminescence measured. The resulting quench factor was applied to all samples to obtain the corrected luciferase activity, and normalized per unit mass of tissue analyzed.

[2] = Particle characteristics of LNPs containing luciferase mRNA and novel ionizable lipids; assay type: physicochemical
Description: The lipid solution contains 4 components: a PEG-conjugated lipid, an ionizable lipid, cholesterol, and a phospholipid (e.g., DSPC). Lipid stocks were prepared using the lipid identities and molar ratios as described, to achieve a total concentration of ˜7 mg/mL in 100% ethanol. Firefly luciferase mRNA (TriLink Biotechnologies, L-7202) or ornithine transcarbamylase (OTC) mRNA (TriLink Biotechnologies, custom designed) was diluted in acetate, pH 5 buffer and nuclease free water to achieve a target concentration of 0.366 mg/mL mRNA in 100 mM acetate, pH 5. Equal volumes of the lipid and nucleic acid solutions were blended at a flow rate of 400 mL/min through a T-connector, and diluted with ˜4 volumes of PBS, pH 7.4. Formulations were placed in Slide-A-Lyzer dialysis units (MWCO 10,000) and dialyzed overnight against 10 mM Tris, 500 mM NaCl, pH 8 buffer. Following dialysis, the formulations were concentrated to ˜0.6 mg/mL using VivaSpin concentrator units (MWCO 100,000) and dialyzed overnight against 5 mM Tris, 10% sucrose, pH 8 buffer. Formulations were filtered through a 0.2 μm syringe filter (PES membrane). Nucleic acid concentration was determined by the RiboGreen assay. Particle size and polydispersity were determined using a Malvern Nano Series Zetasizer.
LNP formulations containing novel ionizable lipids all produced stable particles with high encapsulation efficiency (Tables 1-7).

[3] = Parent ionizable lipid remaining in liver at 6 h after luciferase mRNA LNP (LC-MS); assay type: in vivo; conditions: 6 h after IV 0.5 mg/kg Luciferase mRNA LNP
Description: Liver tissues were treated with PBS and homogenized with a FastPrep machine, 3 cycles of 5 m/s×15 s. Homogenates from the PBS-treated control animals was pooled and used for standard curve preparation. Samples were extracted into a deep well plate with 250 μL of an internal suitability standard. Plates were centrifuged for 15 min at 4° C. and 2000 rpm. Analysis was performed using an Agilent 6520 QTOF coupled to an Agilent 1290 UHPLC, using reverse-phase LC separation. Quantitation of the ionizable lipid was by MS/MS against a calibration curve spiked into appropriately matched blank matrix. Calibration used a similar class of synthetic lipid as internal standard.
At 6 h post-dose, some treatment groups reported lower levels of novel ionizable lipid in mouse liver compared to the benchmark (Tables 16-18).

[4] = Table 3, luciferase mRNA LNP 1.6:54.6:32.8:10.9
[5] = Table 1, luciferase mRNA LNP 1.6:54.6:32.8:10.9
[6] = Table 1, luciferase mRNA LNP 1.6:54.6:32.8:10.9 PEG2000-C-DMA:Ionizable lipid:Cholesterol:DSPC
[7] = Table 2, luciferase mRNA LNP 1.6:54.6:32.8:10.9
[8] = Table 18, female BALB/c mice (n = 4)

## CCCCCCCCCCC(CCCCCC(=O)OCC(CCCCCC)CCCCCCCC)N(CCCCCCCCCC)C(=O)CCCCN(C)C (centres unmarked) [Compound 3, 2-Hexyldecyl 7-(N-decyl-5-(dimethylamino)pentanamido)heptadecanoate]
[1]; Table 10
  Luc Activity: 5.94E+07 pg/g liver
[2]; [4]
  Final Product % EE: 99%
  Final Product PDI: 0.05
  Final Product Z-avg: 91 nm
[3]; Table 16, female BALB/c mice (n = 4)
  Parent ionizable lipid remaining in liver, Average: 7.72 nmol/g liver

## CCCCCCCCCCON(C(=O)CCCCN(C)C)C(CCCCCCCCCC)CCCCCCC(=O)OCC(CCCCCC)CCCCCCCC (centres unmarked) [Compound 45]
[1]; Table 13
  Luc Activity: 8.00E+07 pg/g liver
[3]; Table 17, female mice (n = 4)
  Parent ionizable lipid remaining in liver, Average: 36.39 nmol/g liver

## CCCCCCCCCCC(CCCCCCC(=O)OCC(CCCCCC)CCCCCCCC)N(OCCCCCCCCC)C(=O)CCCN(C)C (centres unmarked) [Compound 46]
[1]; Table 13
  Luc Activity: 1.08E+08 pg/g liver
[3]; Table 17, female mice (n = 4)
  Parent ionizable lipid remaining in liver, Average: 47.63 nmol/g liver

## CCCCCCCCCC(CC(=O)OCC(CCCCCC)CCCCCCCC)N(CCCN(C)C)S(=O)(=O)CCCCCCCC (centres unmarked) [Compound 48, 2-hexyldecyl 3-{N-[3-(dimethylamino)propyl]octane-1-sulfonamido}dodecanoate]
[1]; Table 8
  Luc Activity: 6.49E+06 pg/g liver
[2]; [5]
  Final Product % EE: 96%
  Final Product PDI: 0.04
[2]; [6]
  Final Product Z-avg: 71 nm

## CCCCCCCCCC(CC(=O)OCC(CCCCCC)CCCCCCCC)N(CCCN(C)C)S(=O)(=O)CCCC (centres unmarked) [Compound 49, 2-Hexyldecyl 3-(N-(3-(dimethylamino)propyl)butylsulfonamido)dodecanoate]
[1]; Table 8
  Luc Activity: 8.36E+06 pg/g liver
[2]; [5]
  Final Product % EE: 96%
  Final Product PDI: 0.08
[2]; [6]
  Final Product Z-avg: 61 nm

## CCCCCCCCCCOC(=O)CC(CCCCCCCCC)N(CCCN(C)C)S(=O)(=O)CC(CCCCCC)CCCCCCCC (centres unmarked) [Compound 50, Decyl 3-{N-[3-(dimethylamino)propyl]2-hexyldecanesulfonamido}dodecanoate]
[1]; Table 8
  Luc Activity: 4.82E+06 pg/g liver
[2]; [5]
  Final Product % EE: 93%
  Final Product PDI: 0.07
[2]; [6]
  Final Product Z-avg: 61 nm

## CCCCCCCCCCCS(=O)(=O)N(CCCN(C)C)C(CCCCCCCCC)CC(=O)OCC(CCCCCC)CCCCCCCC (centres unmarked) [Compound 51, 2-hexyldecyl 3-{N-[3-(dimethylamino)propyl]undecane-1-sulfonamido}dodecanoate]
[1]; Table 8
  Luc Activity: 2.50E+07 pg/g liver
[2]; [5]
  Final Product % EE: 94%
  Final Product PDI: 0.09
[2]; [6]
  Final Product Z-avg: 62 nm

## CCCCC/C=C\CCCOC(=O)CC(CCCCCCCCC)N(CCCN(C)C)S(=O)(=O)CCCCCCCCCCC (centres unmarked) [Compound 52, (Z)-Dec-4-en-1-yl 3-(N-(3-(dimethylamino)propyl)undecylsulfonamido)dodecanoate]
[1]; Table 8
  Luc Activity: 5.65E+06 pg/g liver
[2]; [5]
  Final Product % EE: 95%
  Final Product PDI: 0.05
[2]; [6]
  Final Product Z-avg: 72 nm

## CCCCCCCCCC(=O)N(CCCN(C)C)C(CCCCCCCCC)CC(=O)NN(CCCCCCCC)CCCCCCCC (centres unmarked) [Compound 53, N-[3-(dimethylamino)propyl]-N-[1-(N′,N′-dioctylhydrazinecarbonyl)undecan-2-yl]decanamide]
[1]; Table 9
  Luc Activity: 8.02E+06 pg/g liver
[2]; [7]
  Final Product % EE: 97%
  Final Product PDI: (0.07)
  Final Product Z-avg: 106 nm

## CCCCCCCCCC(=O)N(CCCN(C)C)C(CCCCCCCCC)CC(=O)NN=C(CCCCCCCC)CCCCCCCC (centres unmarked) [Compound 55, N-[3-(dimethylamino)propyl]-N-{1-[N′-(heptadecan-9-ylidene)hydrazinecarbonyl]undecan-2-yl}decanamide]
[1]; Table 9
  Luc Activity: 1.22E+06 pg/g liver
[2]; [7]
  Final Product % EE: 98%
  Final Product PDI: (0.17)
  Final Product Z-avg: 94 nm

## CCCCC/C=C\CCCC(CCC/C=C\CCCCC)=NNC(=O)CC(CCCCCCCCC)N(CCCN(C)C)C(=O)CCCCCCCCC (centres unmarked) [Compound 56, N-(3-(Dimethylamino)propyl)-N-(1-(2-((6Z,15Z)-henicosa-6,15-dien-11-ylidene)hydrazineyl)-1-oxododecan-3-yl)decanamide]
[1]; Table 9
  Luc Activity: 9.00E+06 pg/g liver
[2]; [7]
  Final Product % EE: 96%
  Final Product PDI: (0.10)
  Final Product Z-avg: 97 nm

## CCCCCCCCCC(=O)N(CCCN(C)C)C(CCCCCCCCC)CC(=O)NNC(CCCCCCCC)CCCCCCCC (centres unmarked) [Compound 58, N-[3-(dimethylamino)propyl]-N-{1-[N′-(heptadecan-9-yl)hydrazinecarbonyl]undecan-2-yl}decanamide]
[1]; Table 9
  Luc Activity: 3.11E+05 pg/g liver
[2]; [7]
  Final Product % EE: 99%
  Final Product PDI: (0.13)
  Final Product Z-avg: 81 nm

## CCCCCCCCCCC(CCCCCCC(=O)OCCC(CCCCC)CCCCC)N(CCCCCCCC(=O)OCc1cc(CCCCCC)cc(CCCCCC)c1)C(=O)CCCN(C)C (centres unmarked) [Compound 66]
[1]; Table 14
  Luc Activity: 2.00E+07 pg/g liver
[3]; [8]
  Parent ionizable lipid remaining in liver, Average: 34.35 nmol/g liver

## CCCCCCCCCCC(CCCCCCC(=O)OCCC(CCCCCC)CCCCCC)N(CCCCCCCC(=O)OCCC(CCCCCC)CCCCCC)C(=O)CCCN(C)C (centres unmarked) [Compound 69]
[1]; Table 13
  Luc Activity: 4.10E+07 pg/g liver
[3]; Table 17, female mice (n = 4)
  Parent ionizable lipid remaining in liver, Average: 50.57 nmol/g liver

## CCCCCCCCCCC(CCCCCCC(=O)OCCC(CCCCCCC)CCCCCCC)N(CCCCCCCC(=O)OCCC(CCCCCCC)CCCCCCC)C(=O)CCCN(C)C (centres unmarked) [Compound 71]
[1]; Table 13
  Luc Activity: 4.58E+07 pg/g liver
[3]; Table 17, female mice (n = 4)
  Parent ionizable lipid remaining in liver, Average: 27.52 nmol/g liver

## CCCCCCCCCCC(CCCCCCC(=O)OCCC(CCCCC)CCCCC)N(CCCCCCCCC(=O)OCCC(CCCCC)CCCCC)C(=O)CCCCN(C)C (centres unmarked) [Compound 75]
[1]; Table 14
  Luc Activity: 2.58E+07 pg/g liver
[3]; [8]
  Parent ionizable lipid remaining in liver, Average: 20.44 nmol/g liver

## CCCCCCCCCCC(CCCCCCC(=O)OCC(CCCCCC)CCCCCCCC)N(CCCN(C)C)C(=O)CCCCCCC(=O)OCCC(CCCCCC)CCCCCC (centres unmarked) [Compound 84]
[1]; Table 13
  Luc Activity: 6.26E+07 pg/g liver
[3]; Table 17, female mice (n = 4)
  Parent ionizable lipid remaining in liver, Average: 38.96 nmol/g liver

## CCCCCCCCCCC(CCCCCCC(=O)OCC(CCCCCC)CCCCCCCC)N(CCCN(C)C)C(=O)CCCCCCC(=O)OCCC(CCCCCCC)CCCCCCC (centres unmarked) [Compound 85]
[1]; Table 13
  Luc Activity: 4.79E+07 pg/g liver
[3]; Table 17, female mice (n = 4)
  Parent ionizable lipid remaining in liver, Average: 37.66 nmol/g liver

## CCCCCCCCCCC(CCCCCCC(=O)OCCC(CCCCC)CCCCC)N(CCCCCC(F)C(=O)OCCC(CCCCC)CCCCC)C(=O)CCCN(C)C (centres unmarked) [Compound 86]
[1]; Table 14
  Luc Activity: 1.21E+07 pg/g liver
[3]; [8]
  Parent ionizable lipid remaining in liver, Average: 12.79 nmol/g liver
